According to paper PMC7577125 (Antimicrobial Agents and Chemotherapy, 2020):
Read-outs that look alike come from different tables or passages of the source.

Tests used:
[1] = tested on: HBV (genotype D, subtype ayw); assay: HBV replication assay in HepAD38 cells; format: cell-based, Hepatitis B virus; details: Hepatitis B virus
HBV [2] = assay: HBV infection of HepG2-NTCP cells; format: cell-based; details: Hepatitis B virus
HBV [3] = assay: HBV infection of primary human hepatocytes (PHHs); format: cell-based; details: Hepatitis B virus, Hepatocyte, PHH
HBV capsid DNA = assay: Incoming capsid assay in HepG2-NTCP cells; format: cell-based; details: Hepatitis B virus, 3 h, read-out: Capsid DNA % of Control
HBV [4] = assay: HBV RNA/DNA analyses in induced HepAD38 cells (Northern/Southern blot); format: cell-based, Hepatitis B virus; details: for activity at 2 µM: Hepatitis B virus, HePAD38
HBV [5] = assay: Extracellular HBV DNA and pgRNA in HepAD38 cells (qPCR, RT-qPCR); format: cell-based, Hepatitis B virus
Description: For HBV RNA Northern blot analysis, total cellular RNA or encapsidated pgRNA samples were resolved in a 1.5% agarose gel containing 2.2 M formaldehyde and transferred onto a Hybond-XL membrane (GE Healthcare). For DNA Southern blot analysis, HBV core DNA or cccDNA samples were resolved by electrophoresis in a 1.2% agarose gel and blotted onto a Hybond-XL membrane. Membranes were probed with either an [α-^32P]UTP (3,000 Ci/mmol; PerkinElmer)-labeled plus-strand-specific (for Northern blot hybridization) or minus-strand-specific (for Southern blot hybridization) HBV riboprobe and exposed to a phosphorimager screen. Extracellular HBV DNA and RNA were copurified from the culture medium of induced HepAD38 cells by using a MinElute virus vacuum kit (Qiagen). Viral DNA was quantified using the above-mentioned qPCR method directly, and HBV RNA was detected by RT-qPCR with the same core region primer/probe set after the removal of DNA contamination by DNase I (Thermo Fisher) treatment.

HBV genotype A = assay: microbe, parasite or virus in culture; format: cell-based; details: Hepatitis B virus, read-out: Mean antiviral EC50
HBV genotype D = assay: microbe, parasite or virus in culture; format: cell-based; details: Hepatitis B virus, read-out: Mean antiviral EC50
HBV Cp Wild type = assay: microbe, parasite or virus in culture; format: cell-based, Hepatitis B virus
HBV Cp P25A = assay: microbe, parasite or virus in culture; format: cell-based, Hepatitis B virus
HBV Cp T109I = assay: microbe, parasite or virus in culture; format: cell-based, Hepatitis B virus
HBV Cp Y118F = assay: microbe, parasite or virus in culture; format: cell-based, Hepatitis B virus
CYP2C19 = molecular target: T1, CYP2C19 (Homo sapiens, UniProt P33261); assay: CYP inhibition in human liver microsomes, 2C19; format: in vitro ADME; details: 0.1–100 μM
T1 construct: in human liver microsomes; from tissue; host or cells: human liver microsomes
T1 sequence (P33261 whole entry): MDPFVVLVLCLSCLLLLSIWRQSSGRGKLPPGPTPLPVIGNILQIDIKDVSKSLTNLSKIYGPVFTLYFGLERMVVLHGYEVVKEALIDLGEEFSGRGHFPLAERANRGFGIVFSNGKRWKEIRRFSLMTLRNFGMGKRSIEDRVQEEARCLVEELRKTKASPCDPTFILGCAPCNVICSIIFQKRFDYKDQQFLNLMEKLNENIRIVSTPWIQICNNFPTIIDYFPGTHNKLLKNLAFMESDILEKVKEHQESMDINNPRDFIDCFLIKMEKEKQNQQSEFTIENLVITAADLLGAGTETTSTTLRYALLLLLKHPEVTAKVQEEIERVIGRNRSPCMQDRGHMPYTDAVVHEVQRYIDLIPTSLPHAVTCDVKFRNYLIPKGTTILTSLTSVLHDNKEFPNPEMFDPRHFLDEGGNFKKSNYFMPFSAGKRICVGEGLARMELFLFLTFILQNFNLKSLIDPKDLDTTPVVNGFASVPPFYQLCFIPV

[6] = molecular target: pregnane X receptor (PXR) (Homo sapiens, UniProt O75469); assay: PXR activation / CYP3A4 induction in DPX2 cells; format: in vitro ADME; details: 24 h
pregnane X receptor (PXR), sequence (O75469 whole entry): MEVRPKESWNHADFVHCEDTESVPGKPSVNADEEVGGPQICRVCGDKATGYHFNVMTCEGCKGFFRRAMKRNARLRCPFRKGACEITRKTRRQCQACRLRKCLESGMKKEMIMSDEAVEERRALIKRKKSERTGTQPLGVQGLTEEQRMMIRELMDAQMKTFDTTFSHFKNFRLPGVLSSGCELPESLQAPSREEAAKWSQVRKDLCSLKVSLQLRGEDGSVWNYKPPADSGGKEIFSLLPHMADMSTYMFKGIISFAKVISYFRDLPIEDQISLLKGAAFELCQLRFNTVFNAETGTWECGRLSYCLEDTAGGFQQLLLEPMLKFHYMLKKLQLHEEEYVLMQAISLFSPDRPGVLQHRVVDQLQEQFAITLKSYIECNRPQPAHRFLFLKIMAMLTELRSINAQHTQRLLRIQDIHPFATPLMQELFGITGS
Experimental: The determination of CYP induction potential was conducted using CPX2 cells that harbor the human PXR gene and a luciferase reporter gene linked to two promoters identified in the human 3A4 gene.

in vitro [7] = details: for half-life at 1 μM: hepatocytes; for half-life at 0.5 μM: microsomes
Experimental: In vitro intrinsic clearance (CLint) was determined as follows. […] The calculated CLint was determined from the relationship CLint = k × (volume of incubation in ml/mg microsomal protein) × (mg protein in liver/g liver weight) × (g liver weight/kg body weight). The values for liver weights, body weights, as well as hepatic blood flows (QH) across species were obtained from data reported previously by Davies and Morris ([28]). Values for liver microsome protein/liver weight for mouse, rat, dog, and monkey were […] ([27]), and that for human was 33 mg/g. The calculation used for the prediction of hepatic clearance (CLpred) is CLpred = (QH × CLint)/(QH + CLint).

[8] = rat, 1 μM
[9] = in vivo
in vitro [10] = details: human
in vitro [11] = details: rat, plasma
CYP1A2 = CYP1A2 (Homo sapiens, UniProt P05177); assay: biochemical
CYP1A2, sequence (P05177 whole entry): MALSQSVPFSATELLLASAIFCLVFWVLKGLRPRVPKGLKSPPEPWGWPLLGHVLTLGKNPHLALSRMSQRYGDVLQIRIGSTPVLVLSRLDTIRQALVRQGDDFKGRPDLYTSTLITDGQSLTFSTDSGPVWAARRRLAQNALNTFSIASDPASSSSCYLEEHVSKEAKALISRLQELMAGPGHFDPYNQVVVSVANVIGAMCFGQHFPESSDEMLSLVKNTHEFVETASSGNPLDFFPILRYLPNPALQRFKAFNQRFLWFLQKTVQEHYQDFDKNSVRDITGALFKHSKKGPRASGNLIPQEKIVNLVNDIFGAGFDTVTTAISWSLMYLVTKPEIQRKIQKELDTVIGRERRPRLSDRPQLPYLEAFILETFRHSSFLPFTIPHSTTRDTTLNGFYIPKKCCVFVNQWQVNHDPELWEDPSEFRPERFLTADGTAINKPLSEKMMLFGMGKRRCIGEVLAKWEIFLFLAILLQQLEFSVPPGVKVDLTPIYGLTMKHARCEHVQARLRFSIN

HBV [12] = assay: microbe, parasite or virus in culture; details: Hepatitis B virus
CYP3A = CYP3A (Homo sapiens, UniProt P08684); assay: CYP inhibition in human liver microsomes, 3A
CYP3A, sequence (P08684 2-503): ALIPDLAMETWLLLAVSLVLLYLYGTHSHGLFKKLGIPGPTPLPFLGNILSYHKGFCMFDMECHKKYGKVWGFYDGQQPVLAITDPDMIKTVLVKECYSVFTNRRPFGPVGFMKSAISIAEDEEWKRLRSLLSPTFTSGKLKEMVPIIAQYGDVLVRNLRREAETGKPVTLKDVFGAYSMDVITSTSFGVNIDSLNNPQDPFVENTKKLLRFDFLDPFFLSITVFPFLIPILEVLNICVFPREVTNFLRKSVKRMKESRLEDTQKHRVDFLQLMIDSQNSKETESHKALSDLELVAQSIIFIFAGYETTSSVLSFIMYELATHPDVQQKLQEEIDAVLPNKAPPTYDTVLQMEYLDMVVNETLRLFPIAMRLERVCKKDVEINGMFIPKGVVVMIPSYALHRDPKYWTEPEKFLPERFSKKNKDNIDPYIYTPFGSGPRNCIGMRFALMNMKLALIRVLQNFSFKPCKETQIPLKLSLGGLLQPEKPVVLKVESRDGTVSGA

[13] = total intracellular viral DNA, read-out: Mean EC50, viral DNA
[14] = HepAD38, concn ETV 0.01, ABI-H0731 2.0, GLS4 0.5, NVR 3-778 2.5, AT-130 0.8, VRD-32 0.8 μM
[15] = Hepatitis B virus, Huh-7, read-out: Mean EC50

## O=C(NCc1cnc(C(F)(F)F)s1)c1ccc2c(c1)NC(=O)c1ccccc1S2(=O)=O [ABI-H0731]
[1]; HePAD38, HepAD38, concomitantly determined with HepG2-NrtI^R, read-out: Mean EC50
  EC50: 221 ± 19 nM
[1]; HePAD38, HepAD38, total intracellular viral DNA, read-out: Mean EC50, viral DNA
  EC50: 173 ± 40 nM
HBV [2]; read-out: Mean EC50, HBeAg
  EC50: 4950 nM
HBV [2]; read-out: Mean EC50, HBsAg
  EC50: 7300 nM
HBV [2]; read-out: Mean EC50, pgRNA
  EC50: 2680 nM
HBV [2]; [13]
  EC50: 307 ± 41 nM
HBV [3]; read-out: Mean EC50, HBeAg
  EC50: 2210 nM
HBV [3]; read-out: Mean EC50, HBsAg
  EC50: 3000 nM
HBV [3]; read-out: Mean EC50, pgRNA
  EC50: 1840 nM
HBV [3]; [13]
  EC50: 154 ± 18 nM
HBV capsid DNA; 0.04 μM
  activity at 0.04 µM: 105%
HBV capsid DNA; 0.12 μM
  activity at 0.12 µM: 107%
HBV capsid DNA; 0.37 μM
  activity at […]: 103%
HBV capsid DNA; 1.11 μM
  activity at 1.11 µM: 91%
HBV capsid DNA; 3.33 μM
  activity at 3.33 µM: 73%
HBV capsid DNA; 10.0 μM
  activity at 10 µM: 10%
HBV [4]; HepAD38, 10-fold over VR EC50
  Levels of encapsidated pgRNA by Northern blotting: virtually undetectable
  rcDNA detection by Southern blot: could not be detected
HBV [4]; read-out: Capsid DNA % of Control
  activity at 2 µM: 10%
HBV [4]; read-out: DNA % of Control (extracted HBV DNA replication intermediates)
  activity at 2 µM: 1%
HBV [4]; read-out: Encapsidated pgRNA % of Control
  activity at 2 µM: 4%
HBV [5]; HepAD38, 10-fold over VR EC50
  secretion of HBV RNA and DNA in the culture medium: ≤ 3 % of the DMSO control
HBV [5]; [14]
  Extracellular DNA content (% of DMSO control): 1.4 % of DMSO control
  Extracellular pgRNA content (% of DMSO control): 3.1 % of DMSO control
HBV genotype A
  EC50: 113 ± 22 nM
HBV genotype D
  EC50: 142 ± 48 nM
HBV Cp Wild type; [15]
  EC50: 146 ± 21 nM
HBV Cp Wild type; Wild type
  Fold shift: 1 fold
HBV Cp P25A; [15]
  EC50: 169 ± 41 nM
HBV Cp P25A; P25A vs wild type
  Fold shift: 1.2 fold
HBV Cp T109I; [15]
  EC50: > 10000 nM
HBV Cp T109I; T109I vs wild type
  Fold shift: >68 fold
HBV Cp Y118F; [15]
  EC50: 2070 nM
HBV Cp Y118F; Y118F vs wild type
  Fold shift: 14 fold
CYP2C19
  IC50: 42800 nM
[6]; 10 μM
  PXR activation activity, % of the control activity: 29%
[6]; 40 μM
  PXR activation activity, % of the control activity: 68%
In vitro [7]; cynomolgus monkey, 0.5 μM
  % LBF: 15%
  CLpred: 4.7 mL/min/kg
In vitro [7]; cynomolgus monkey, 1 μM
  % LBF: 15%
  CLpred: 4.7 mL/min/kg
In vitro [7]; dog, 0.5 μM
  % LBF: 65%
  CLpred: 20 mL/min/kg
In vitro [7]; dog, 1 μM
  % LBF: 81%
  CLpred: 25 mL/min/kg
In vitro [7]; dog
  half-life at 1 μM: 0.667 h
  half-life at 0.5 μM: 0.622 h
In vitro [7]; human, 0.5 μM
  % LBF: 13%
  CLpred: 2.8 mL/min/kg
In vitro [7]; human, 1 μM
  % LBF: 11%
  CLpred: 2.3 mL/min/kg
In vitro [7]; human
  half-life at 1 μM: 11.6 h
  half-life at 0.5 μM: 6.27 h
In vitro [7]; monkey
  half-life at 1 μM: 7.92 h
  half-life at 0.5 μM: 5.98 h
In vitro [7]; mouse, 0.5 μM
  % LBF: 21%
  CLpred: 19 mL/min/kg
In vitro [7]; mouse
  half-life at 0.5 μM: 2.33 h
In vitro [7]; rat, 0.5 μM
  % LBF: 12%
  CLpred: 7.9 mL/min/kg
In vitro [7]; rat
  half-life at 0.5 μM: 4.62 h
[8]
  % LBF: 32%
  CLpred: 21 mL/min/kg
[9]
  target organ or dose-limiting toxicities: no specific target organ or dose-limiting toxicities
In vitro [10]
  recovery at 4 days, 10 μM: 67 to 84%
In vitro [11]
  fraction unbound at 6 h: 0.02 to 0.052
CYP1A2
  IC50: > 100000 nM
HBV [12]; HePAD38, HepAD38, 2% HPL
  EC50: 200 ± 5 nM
HBV [12]; HePAD38, HepAD38, 20% HPL
  EC50: 522 ± 40 nM
CYP3A; probe midazolam
  IC50: 82300 nM
CYP3A; probe test (so in the source)
  IC50: 46200 nM
